Data reported in US20240398764A1, “METHODS OF TREATING DISEASES ASSOCIATED WITH SENESCENT CELL ACCUMULATION” (University of Florida Research Foundation, Incorporated, priority 2021, published 2024).

Key:
[1] = test system: replicative senescent REC (Rep-SnC REC); test: Viability of Rep-SnC REC; format: cell-based; settings: 72 hr incubation; vs ABT263
Method: (§1) FIGS. 3A to 3B depicts viability of non-SnC human umbilical vein endothelial cells (HUVEC) and IR-induced SnC HUVEC treated with varying concentrations of ABT263 (FIG. 3A) or 753b (FIG. 3B). FIGS. 3C to 3D depict viability of non-SnC renal epithelial cells (REC), IR-induced SnC REC, and replicative senescent REC treated with varying concentrations of ABT263 (FIG. 3C) or 753b (FIG. 3D).
(§2) The viability of Non-SnC HUVEC, Non-SnC REC, IR-SnC HUVEC, IR-SnC REC, and Rep-SnC REC was measured 72 hr after they were incubated with increasing concentrations of 753b or ABT263 compared to cells/platelets with vehicle.

[2] = test system: ionizing radiation (IR) induced senescent WI-38 fibroblast cells (IR-SnCs); test: Viability of IR-induced senescent WI-38 fibroblast cells; format: cell-based; settings: 72 hr incubation; vs ABT263
Description: (§3) FIG. 2A depicts immunoblots showing degradation of Bcl-xl and Bcl-2 in non-senescent WI-38 fibroblast cells (Non-SnCs) treated with varying concentrations of 753b. 3-actin was used as a loading control. FIG. 2B depicts viability of Non-SnCs treated with varying concentrations of 753b or ABT263. FIG. 2C depicts immunoblots showing degradation of Bcl-xl and Bcl-2 in ionizing radiation-induced senescent WI-38 fibroblast cells (IR-SnCs) treated with varying concentrations of 753b. 3-actin was used as a loading control. FIG. 2D depicts viability of IR-SnCs treated with varying concentrations of 753b or ABT263. FIG. 2E depicts immunoblots showing degradation of Bcl-xl and Bcl-2 in human platelets treated with varying concentrations of 753b. FIG. 2F depicts viability of human platelets treated with varying concentrations of 753b or ABT263.
(§4) The potency of 753b in degrading Bcl-xl/2 was evaluated by immunoblots after the cells or platelets were treated with different concentrations of 753b for 16 h ([…]). 753b is more cytotoxic to IR-SnCs but less toxic to Non-SnCs and platelets. The viability of Non-SnCs, IR-SnCs and platelets was measured 72 hr (Non-SnCs and IR-SnCs) and 48 hr (platelets) after they were incubated with increasing concentrations of 753b or ABT263 compared to cells/platelets with vehicle.

[3] = target: Bcl-xl (Homo sapiens, UniProt Q07817); test: Immunoblot of Bcl-xl degradation in human platelets; format: cell-based; design: endogenous in cells; host or cells: human platelets; settings: different concentrations, 16 h
Chain of Bcl-xl (Q07817 whole entry): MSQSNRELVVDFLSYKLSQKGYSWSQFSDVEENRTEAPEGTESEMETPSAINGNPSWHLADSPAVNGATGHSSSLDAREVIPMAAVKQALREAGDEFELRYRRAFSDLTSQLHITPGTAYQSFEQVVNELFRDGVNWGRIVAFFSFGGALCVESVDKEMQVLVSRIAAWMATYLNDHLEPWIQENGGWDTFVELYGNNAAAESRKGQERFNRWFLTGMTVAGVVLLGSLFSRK
Description: as §3, §4

[4] = Tumorigenesis in the STAM model (MRI); format: in vivo, C57BL6 mice; settings: STZ/HFD mice; 5 mg/kg twice a week IP; postnatal day 150
Method: FIG. 10A depicts images of livers of STZ/HFD mice treated with vehicle control or 753b (top) and MRIs of T1 pre-contrast and T2-weighted images of corresponding livers (bottom). Tumor lesions are indicated by yellow arrows. […] FIG. 10C depicts a Western blot of Gpc3 in livers of STZ/HFD mice treated with vehicle control or 753b. Actin was used as a loading control.
Experimental design: C57BL6 mice were injected with Streptozotocin (STZ) at postnatal day 2 to induce diabetes and then fed with HFD from postnatal day 30 till the end of the experiments (FIG. 5). Half of the mice started receiving vehicle and the others receiving 753b (5 mg/kg) treatment on postnatal day 45 twice a week by IP injection till the end of the experiments. […]
All the analyses were done in mice at postnatal day 150 (p150 or 105 days after treatment). […] Tumor lesions were determined based on hypointense signals in T1 but hyperintense signals in T2-weighted image (FIG. 10A). Tumor number and volume was quantified based on MRI T1 and T2-weighted images. Values were expressed as means±SD from 5 mice per group. Data for each mouse were analyzed based on 5-6 slices of images that covered whole liver lobes (FIG. 10B). […] Quantification analysis was performed for the ratio between liver and body weight in the STZ/HFD treated livers that were exposed to 753b or control compound (FIG. 10D). […]

[5] = Myofibroblast cell activation and liver fibrosis in the STAM model; format: in vivo, C57BL6 mice; settings: STZ/HFD mice, 5 mg/kg twice a week IP, postnatal day 150
Method: FIG. 9A depicts relative change in aSMA, Procollagen-1, Tgf-β, Ctgf, and Pdgf-β genes in livers of STZ/HFD mice treated with vehicle control or 753b. Data were means±SD of triplicate experiments. *p<0.05. […] Scale bar: […]. […] Actin was used as a loading control. FIG. 9D depicts hydroxyproline (μg/g) levels in the liver of STZ/HFD mice treated with vehicle control or 753b. *p<0.05.
(§5) Experimental design: C57BL6 mice were injected with Streptozotocin (STZ) at postnatal day 2 to induce diabetes and then fed with HFD from postnatal day 30 till the end of the experiments (FIG. 5). Half of the mice started receiving vehicle and the others receiving 753b (5 mg/kg) treatment on postnatal day 45 twice a week by IP injection till the end of the experiments. A group of the mice were euthanized at postnatal day 90 (or day 45 after the initiation of the treatment) for analysis of senescent cell accumulation and steatosis. Another group of the mice were euthanized at postnatal day 150 (or day 105 after the initiation of the treatment) for analysis of liver fibrosis and cancer.
753b administration inhibits myofibroblast cell activation and liver fibrosis in the STAM model. All the analyses were done in mice at postnatal day 150 (p150 or 105 days after treatment). […] Quantification was performed from 5 livers per group and was expressed as means±SD.

[6] = Body conditions and insulin tolerance test in the STAM model; format: in vivo, C57BL6 mice; settings: STZ/HFD mice; 5 mg/kg twice a week IP; postnatal day 150
Method: FIG. 8A is an image showing body condition of STZ/HFD mice treated with vehicle control or 753b. FIG. 8B depicts blood glucose (mg/dL) levels versus time after intraperitoneal injection of insulin in STZ/HFD mice treated with vehicle control or 753b. Data were means±SD from 5 mice per group. *p<0.05.
as §5
753b administration improves body conditions and ameliorates the development of insulin resistance in the STAM model. All the analyses were done in mice at postnatal day 150 (p150 or 105 days after treatment).

[7] = test system: normal non-senescent HUVEC (Non-SnC HUVEC); test: Viability of Non-SnC HUVEC; format: cell-based, human; settings: 72 hr incubation; vs ABT263
Method: as §1, §2

For `Cc1ncsc1-c1ccc([C@H](C)NC(=O)[C@@H]2C[C@@H](O)CN2C(=O)[C@@H](NC(=O)CCCCCCC(=O)N2CCN(C[C@]3(C)CCC(c4ccc(Cl)cc4)=C(CN4CCN(c5ccc(C(=O)NS(=O)(=O)c6ccc(N[C@H](CCN7CCOCC7)CSc7ccccc7)c(S(=O)(=O)C(F)(F)F)c6)cc5)CC4)C3)CC2)C(C)(C)C)cc1` [Compound 753b], the “Senolytic potency (viability) against Rep-SnC REC compared with ABT263” value [1] was “more potent senolytic agent”, the “Senolytic potency (viability) against IR-SnCs compared with ABT263” value [2] was “more potent senolytic agent” and the “Bcl-xl degradation in human platelets” value [3] was “not in human platelets”. For the same compound, the “Tumorigenesis in the liver” value [4] was “reduces tumorigenesis”, the “Collagen level in livers (hepatic hydroxyproline assay)” value [5] was “decreased levels of collagen” and the “Liver fibrosis (aSMA immunofluorescent staining and sirius red staining)” value [5] was “prevented liver fibrosis”. For the same compound, the “aSMA and pro-collagen type I protein levels in livers (Western blotting)” value [5] was “low levels of aSMA and pro-collagen type I proteins”, the “Levels of fibrosis-related genes in livers (Q-RT-PCR)” value ([5]; vs controls) was “lower levels of fibrosis-related genes” and the “Body conditions (dehydration and dampen hair)” value [6] was “prevented the development of abnormal body conditions”. For the same compound, the “Insulin resistance (intraperitoneal injected insulin tolerance test)” value [6] was “prevented insulin resistance” and the “Toxicity (viability) to Non-SnC HUVEC compared with ABT263” value [7] was “less toxic”.
